Entries after “also recorded” stand apart in the source; their conditions may differ.
Target: α-glucosidase from Saccharomyces cerevisiae (Saccharomyces cerevisiae, UniProt P53341)
Test: α-glucosidase inhibition assay (pNPG substrate)
Format: biochemical
Conditions: yeast α-glucosidase; acarbose as positive control
Procedure: The α-glucosidase inhibition assay was performed according to a slightly modified, previously reported method; α-Glucosidase (0.1 U/mL) was dissolved in potassium phosphate buffer (pH 6.8) as the enzyme solution. The tested compounds (50 μL, 5 mM) dissolved in potassium phosphate buffer containing 3% DMSO were mixed with 50 μL of enzyme solution. After incubation at 37 °C for 10 min, a p-nitrophenyl-α-glucopyranoside (pNPG) solution (100 μL) (5.0 mM pNPG in 0.1 M potassium phosphate buffer (pH 6.8)) was added. The enzymatic reaction proceeded at 37 °C for 20 min and was terminated by the addition of 100 μL of 0.2 M Na2CO3. 4-nitrophenol absorption was immediately measured at 405 nm by using a microplate reader. The experiments were performed in triplicate.

α-glucosidase from Saccharomyces cerevisiae, sequence (P53341 whole entry): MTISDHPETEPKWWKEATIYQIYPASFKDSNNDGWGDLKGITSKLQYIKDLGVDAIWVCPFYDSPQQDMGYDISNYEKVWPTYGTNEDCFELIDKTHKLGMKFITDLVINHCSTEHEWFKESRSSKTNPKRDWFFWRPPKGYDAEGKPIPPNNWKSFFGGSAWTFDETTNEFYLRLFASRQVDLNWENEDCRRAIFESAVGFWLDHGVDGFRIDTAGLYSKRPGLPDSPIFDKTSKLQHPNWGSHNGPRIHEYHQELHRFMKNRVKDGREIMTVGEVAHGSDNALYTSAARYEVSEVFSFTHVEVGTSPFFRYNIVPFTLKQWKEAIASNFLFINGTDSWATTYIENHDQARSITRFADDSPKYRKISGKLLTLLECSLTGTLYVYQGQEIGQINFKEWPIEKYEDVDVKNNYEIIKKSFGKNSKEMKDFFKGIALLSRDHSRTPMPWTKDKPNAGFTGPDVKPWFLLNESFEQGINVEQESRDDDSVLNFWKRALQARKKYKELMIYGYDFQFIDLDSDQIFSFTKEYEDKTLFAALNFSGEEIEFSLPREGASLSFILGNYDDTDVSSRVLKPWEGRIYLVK

CC(=O)O[C@@]1(C)C[C@@H](OC(=O)C2=CO[C@@H](O[C@@H]3O[C@H](CO)[C@@H](O)[C@H](O)[C@H]3OC(=O)/C=C\c3ccc(O)cc3)[C@@H]3[C@H](C)CC[C@H]23)[C@@H]2C=CO[C@@H](O[C@@H]3O[C@H](CO)[C@@H](O)[C@H](O)[C@H]3O)[C@@H]21 [Compound 4, 2′′′-O-(Z)-p-coumaroyl caryocanoside B]
α-glucosidase inhibitory effect (in words): stronger inhibitory effects against α-glucosidase than the positive control; also recorded: potent effect

CC(CO)c1cc2c(c(O)c1O[C@@H]1O[C@H](CO)[C@@H](O)[C@H](O)[C@H]1O)[C@@]1(C)CCC[C@](C)(CO[C@@H]3O[C@H](CO)[C@@H](O)[C@H](O)[C@H]3O)[C@@H]1CC2 (some centres unmarked) [Compound 10, ajugaside A]
α-glucosidase inhibitory effect (in words): stronger inhibitory effects against α-glucosidase than the positive control
